Results as given in the supplement of paper PMC6045584.
± gives the standard deviation of the averaged measurements.

Assays:
[1] = compound: CCn1c(C(=O)N(C2CC2)C2CC2)cc2c3c(ncn3C)c(Nc3cc(C)n(C)n3)nc21; assay: surviving fraction relative to DMSO-only wells; higher = less growth inhibition; details: exposure time: 5 days
How it was run: (§1)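 Five days of continuous inhibitor exposure, at 0.5, 1, 5, 10, 50, 100, 500 and 1000 nM, followed a 24-hour period after log-phase tumour cell lines were seeded at 250–500 cells per well in 384-well plates. Surviving fraction was derived from CellTiter-Glo luminescence relative to the median of DMSO-only wells. Plates were read after 10 minutes at room temperature, and lines screened three times were kept only if replicate Pearson r >0.7 and median Z' >0.3.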

SORAFENIB = compound: CNC(=O)c1cc(Oc2ccc(NC(=O)Nc3ccc(Cl)c(C(F)(F)F)c3)cc2)ccn1 [SORAFENIB]; assay: as above; details: exposure time: 5 days
How it was run: as §1

Row | Test System | surviving fraction ([1]; 0.5 nM) | surviving fraction ([1]; 1 nM) | surviving fraction ([1]; 5 nM) | surviving fraction ([1]; 10 nM) | surviving fraction ([1]; 50 nM) | surviving fraction ([1]; 100 nM) | surviving fraction ([1]; 500 nM) | surviving fraction ([1]; 1000 nM) | surviving fraction (SORAFENIB; 0.5 nM) | surviving fraction (SORAFENIB; 1 nM) | surviving fraction (SORAFENIB; 5 nM) | surviving fraction (SORAFENIB; 10 nM) | surviving fraction (SORAFENIB; 50 nM) | surviving fraction (SORAFENIB; 100 nM) | surviving fraction (SORAFENIB; 500 nM) | surviving fraction (SORAFENIB; 1000 nM)
1 | SCC47 HEADNECK | 0.86 ± 0.014 | 0.823 ± 0.037 | 0.995 ± 0.094 | 0.968 ± 0.1 | 0.99 ± 0.063 | 1.06 ± 0.072 | 0.88 ± 0.016 | 0.916 ± 0.12 | 1.04 ± 0.067 | 0.998 ± 0.071 | 1.08 ± 0.029 | 0.974 ± 0.067 | 1 ± 0.053 | 1.01 ± 0.068 | 0.907 ± 0.065 | 0.825 ± 0.028
2 | MG63 BONE | 0.9877 ± 0.0096 | 0.944 ± 0.016 | 0.992 ± 0.02 | 0.981 ± 0.031 | 1.01 ± 0.011 | 0.98 ± 0.015 | 0.928 ± 0.013 | 0.891 ± 0.021 | 0.996 ± 0.025 | 1 ± 0.018 | 1.044 ± 0.01 | 1.015 ± 0.0067 | 1.13 ± 0.014 | 1.13 ± 0.031 | 1.1 ± 0.025 | 1.12 ± 0.012
3 | CAL72 BONE | 1.1 ± 0.015 | 1.11 ± 0.035 | 1.06 ± 0.019 | 1.035 ± 0.005 | 1.12 ± 0.022 | 1.16 ± 0.059 | 1.13 ± 0.028 | 1.1 ± 0.035 | 1.06 ± 0.031 |  | 1.09 ± 0.026 | 1.05 ± 0.048 | 1.13 ± 0.039 | 1.121 ± 0.0063 | 1.09 ± 0.041 | 1.08 ± 0.042
4 | CME SYNOVIAL | 1.27 ± 0.18 | 1.22 ± 0.11 | 1.29 ± 0.15 | 1.22 ± 0.064 | 1.294 ± 0.004 | 1.22 ± 0.072 | 1.21 ± 0.11 | 1.09 ± 0.06 | 1.23 ± 0.11 | 1.2 ± 0.07 | 1.28 ± 0.072 | 1.38 ± 0.075 | 1.28 ± 0.058 | 1.4 ± 0.12 | 1.27 ± 0.073 | 1.15 ± 0.025
5 | 93VU HEADNECK | 0.879 ± 0.12 | 0.834 ± 0.051 | 1.05 ± 0.031 | 0.976 ± 0.029 | 1.06 ± 0.042 | 1.04 ± 0.1 | 0.832 ± 0.027 | 0.775 ± 0.11 | 0.961 ± 0.081 | 0.987 ± 0.091 | 1.12 ± 0.051 | 1.19 ± 0.11 | 1.22 ± 0.1 | 1.17 ± 0.07 |  | 
6 | 143B BONE | 1 ± 0.0057 | 1 ± 0.03 | 1.02 ± 0.012 | 0.9945 ± 0.005 | 1.04 ± 0.025 | 1.02 ± 0.02 | 1.01 ± 0.026 | 1.023 ± 0.0099 |  | 1.02 ± 0.018 |  | 1.042 ± 0.0078 | 1.03 ± 0.06 | 1.02 ± 0.042 |  | 0.962 ± 0.012
7 | SUM149 BREAST | 1.04 ± 0.093 | 1.05 ± 0.12 | 1.07 ± 0.059 | 1.06 ± 0.026 | 1.04 ± 0.05 | 1.04 ± 0.16 | 1.06 ± 0.037 | 1.1 ± 0.16 | 1.18 ± 0.028 | 1.09 ± 0.048 |  |  |  | 1.17 ± 0.051 |  | 1.278 ± 0.0084
8 | SCC90 HEADNECK | 0.826 ± 0.041 | 0.929 ± 0.046 | 1.05 ± 0.14 | 0.964 ± 0.091 | 0.976 ± 0.04 | 1.01 ± 0.13 | 0.875 ± 0.093 | 0.922 ± 0.061 | 1.16 ± 0.083 | 1.23 ± 0.13 | 1.37 ± 0.12 | 1.3 ± 0.097 |  | 0.797 ± 0.076 | 1.01 ± 0.083 | 1.12 ± 0.069
9 | S68 BREAST | 1.1 ± 0.39 | 0.683 ± 0.17 | 0.816 ± 0.16 | 0.974 ± 0.13 | 1.35 ± 0.11 | 0.945 ± 0.054 | 0.823 ± 0.016 | 0.817 ± 0.11 |  | 0.963 ± 0.22 | 1.06 ± 0.083 | 1.13 ± 0.18 | 1.29 ± 0.099 | 1.12 ± 0.27 | 1.02 ± 0.079 | 0.895 ± 0.32
10 | U2OS BONE | 0.998 ± 0.025 | 1.03 ± 0.029 | 1.05 ± 0.023 | 1.02 ± 0.022 | 1.07 ± 0.053 | 1.077 ± 0.0072 | 1.03 ± 0.011 | 1.05 ± 0.013 | 1.01 ± 0.019 | 1.03 ± 0.027 | 1.06 ± 0.05 | 1.05 ± 0.029 | 1.08 ± 0.035 |  | 1.08 ± 0.016 | 1 ± 0.067
11 | MCF7 BREAST | 0.815 ± 0.049 | 0.841 ± 0.028 | 0.844 ± 0.025 | 0.828 ± 0.03 | 0.913 ± 0.048 | 0.862 ± 0.026 | 0.889 ± 0.065 | 0.854 ± 0.039 | 0.866 ± 0.025 | 0.86 ± 0.068 | 0.904 ± 0.021 | 0.851 ± 0.022 | 0.928 ± 0.047 | 0.939 ± 0.034 | 0.995 ± 0.074 | 0.873 ± 0.025
12 | SUM44 BREAST | 0.98 ± 0.056 | 1 ± 0.0096 | 1.04 ± 0.026 | 0.997 ± 0.086 | 1.03 ± 0.08 | 1.12 ± 0.025 | 1.02 ± 0.068 | 1.01 ± 0.057 | 1.03 ± 0.035 | 0.99 ± 0.041 | 1.03 ± 0.051 | 1.04 ± 0.053 | 1.12 ± 0.035 | 1.11 ± 0.044 |  | 0.974 ± 0.026
13 | SIHA CERVIX | 0.868 ± 0.064 | 0.906 ± 0.052 | 0.991 ± 0.036 | 0.965 ± 0.041 | 1.04 ± 0.068 | 1.08 ± 0.057 | 0.983 ± 0.11 | 0.91 ± 0.078 | 1.04 ± 0.085 | 1.16 ± 0.11 | 1.089 ± 0.01 | 1.13 ± 0.077 |  | 1.15 ± 0.043 | 1.17 ± 0.16 | 1.17 ± 0.15
14 | VCAP PROSTATE | 0.98 ± 0.059 | 1.05 ± 0.12 | 1.15 ± 0.09 | 1.03 ± 0.051 | 1.11 ± 0.11 | 1.13 ± 0.18 | 1.06 ± 0.078 | 1.06 ± 0.092 | 1.13 ± 0.17 | 1.17 ± 0.11 | 1.19 ± 0.12 | 1.08 ± 0.053 | 1.12 ± 0.21 |  | 1.13 ± 0.16 | 1.02 ± 0.062
15 | HUO3N1 BONE | 0.9853 ± 0.0075 | 0.999 ± 0.029 | 1.05 ± 0.057 | 1.03 ± 0.048 | 1.07 ± 0.021 | 1 ± 0.048 | 0.967 ± 0.038 | 0.868 ± 0.013 | 1 ± 0.053 |  |  | 1 ± 0.036 | 1.004 ± 0.01 | 0.941 ± 0.04 | 0.818 ± 0.029 | 0.82 ± 0.017
16 | YAMATO SYNOVIAL | 1.22 ± 0.059 | 1.21 ± 0.076 | 1.234 ± 0.012 | 1.19 ± 0.027 | 1.4 ± 0.081 | 1.32 ± 0.15 | 1.327 ± 0.0092 | 1.14 ± 0.023 | 1.26 ± 0.054 | 1.24 ± 0.066 | 1.37 ± 0.096 | 1.26 ± 0.078 | 1.44 ± 0.096 | 1.35 ± 0.05 | 1.18 ± 0.088 | 1.04 ± 0.056
17 | ASKA SYNOVIAL | 1.06 ± 0.071 | 0.998 ± 0.1 | 1.06 ± 0.064 | 1.05 ± 0.062 | 1.15 ± 0.092 | 1.11 ± 0.063 | 1.07 ± 0.057 | 0.953 ± 0.051 | 1.12 ± 0.019 | 1.07 ± 0.063 | 1.18 ± 0.024 | 1.12 ± 0.028 | 1.15 ± 0.031 | 1.15 ± 0.014 | 1.01 ± 0.023 | 0.954 ± 0.045
18 | MDAMB436 BREAST | 0.857 ± 0.024 | 0.807 ± 0.1 | 0.8337 ± 0.0019 | 0.877 ± 0.086 | 0.926 ± 0.029 | 0.946 ± 0.12 | 0.983 ± 0.13 | 0.941 ± 0.033 | 0.966 ± 0.04 | 0.992 ± 0.046 | 0.977 ± 0.057 | 0.949 ± 0.085 |  | 0.961 ± 0.043 |  | 0.855 ± 0.019
19 | H23 LUNG | 0.966 ± 0.048 | 0.982 ± 0.013 | 0.972 ± 0.025 | 0.981 ± 0.03 | 0.99 ± 0.015 | 0.981 ± 0.025 | 0.894 ± 0.021 | 0.903 ± 0.054 | 1.01 ± 0.03 |  | 1.06 ± 0.061 | 1.06 ± 0.033 | 1.32 ± 0.095 | 1.33 ± 0.031 | 1.38 ± 0.11 | 1.27 ± 0.073
